System: human eye
Assay: higher-order wavefront aberrations (rms) measured with a wavefront analyzer in subjects treated for 6 months
Type: in vivo
Details: human subjects treated for 6 months; 20 mg/day zeaxanthin (Z), 20 mg/day lutein (L), or 10 mg lutein+10 mg zeaxanthin per day (C, P-C); versus placebo; FIG. 1
Description: The wavefront aberration function is a way of quantifying the imperfections of the optics of the eye that cause degradation of retinal image quality. The “ideal” wavefront is generated when a “point” on the retina is imaged through the optics of the eye as a plane and flat surface just outside the eye. This means that all the rays emerging from the eye form a parallel bundle and are perpendicular to this plane. The “real” wavefront surface is not a perfect two-dimensional plane and reflects the aberrations present in the optical system. It is usually represented mathematically by a series of terms known as Zernike polynomials. A knowledge of the coefficients of the Zernike polynomials provides a complete description of the wavefront surface. In order to obtain one single number that describes the quality of the imaging system (in this case the human eye) the root mean square (rms) deviation is calculated by computing the root of the mean of the squares of the actual deviations from the ideal plane. The rms value is equivalent to a standard deviation, but the two functions compared are 2D surfaces (i.e., the ideal wavefront and the actual wavefront). The wavefront aberrations are measured with a wavefront analyzer (see, e.g., J. Refract. Surg. 2001; 17(5), S608-S612). […]

SMILES | higher-order wavefront aberrations in the human eye
CC1=C[C@H](O)CC(C)(C)[C@H]1/C=C/C(C)=C/C=C/C(C)=C/C=C/C=C(C)/C=C/C=C(C)/C=C/C1=C(C)C[C@@H](O)CC1(C)C [lutein] | reduction of higher-order wavefront aberrations
CC1=C(/C=C/C(C)=C/C=C/C(C)=C/C=C/C=C(C)/C=C/C=C(C)/C=C/C2=C(C)C[C@@H](O)CC2(C)C)C(C)(C)C[C@H](O)C1 [zeaxanthin] | reduction of higher-order wavefront aberrations

Source: patent US20080045605A1, “Image Quality in the Eye” (priority 2004, published 2008)
